The test system of data set [1] is Spodoptera littoralis (Egyptian cotton leaf worm). Briefly: Example B1: activity against Spodoptera littoralis, cotton leaf disc spray. Format: in vivo. The following applies: foliar, 72 h, application rate of 200 ppm, cotton leaf discs, L1 larvae, 3 days after infestation, read-out: control in at least one of the three categories (mortality, anti-feedancy or growth inhibition). As for the experimental part: Example B1: Activity Against Spodoptera littoralis (Egyptian Cotton Leaf Worm)
Cotton leaf discs were placed on agar in 24-well microtiter plates and sprayed with aqueous test solutions prepared from 10,000 ppm DMSO stock solutions. After drying the leaf discs were infested with five L1 larvae. The samples were assessed for mortality, anti-feedant effect, and growth inhibition in comparison to untreated samples 3 days after infestation. Control of Spodoptera littoralis by a test sample is when at least one of mortality, anti-feedant effect, and growth inhibition is higher than the untreated sample. The following compound gave an effect of at least 80% control in at least one of the three categories (mortality, anti-feedancy or growth inhibition) at an application rate of 200 ppm: P1, P4, P5, P8, P9, P10, P12 and P13.

Data set [2] deals with Plutella xylostella (diamond back moth). Briefly: Example B3: activity against Plutella xylostella, artificial diet. The following applies: 120 h, application rate of 200 ppm, L2 larvae, 5 days after infestation, read-out: effect in at least one of the two categories (mortality or growth inhibition). The data set is classed as in vivo. As for the experimental part: Example B3: Activity Against Plutella xylostella (Diamond Back Moth)
24-well microtiter plates with artificial diet were treated with aqueous test solutions prepared from 10,000 ppm DMSO stock solutions by pipetting. After drying, the plates were infested with L2 larvae (10 to 15 per well). The samples were assessed for mortality and growth inhibition in comparison to untreated samples 5 days after infestation. The following compound gave an effect of at least 80% in at least one of the two categories (mortality or growth inhibition) at an application rate of 200 ppm: P1, P4, P5, P6, P8, P9, P10, P11, P12 and P13.

For data set [3], the system named is Diabrotica balteata (corn root worm). Briefly: Example B4: activity against Diabrotica balteata, maize sprouts spray. Format: in vivo. The following applies: 96 h, application rate of 200 ppm, L2 larvae, 4 days after infestation, read-out: effect in at least one of the two categories (mortality or growth inhibition). Here is the method: Example B4: Activity Against Diabrotica balteata (Corn Root Worm)
Maize sprouts, placed on an agar layer in 24-well microtiter plates were treated with aqueous test solutions prepared from 10,000 ppm DMSO stock solutions by spraying. After drying, the plates were infested with L2 larvae (6 to 10 per well). The samples were assessed for mortality and growth inhibition in comparison to untreated samples 4 days after infestation. The following compounds gave an effect of at least 80% in at least one of the two categories (mortality or growth inhibition) at an application rate of 200 ppm: P1, P4, P5, P6, P8, P9, P10, P11, P12 and P13.

The test system of data set [4] is Myzus persicae (green peach aphid). Briefly: Example B5: activity against Myzus persicae, sunflower leaf disc spray. The following applies: foliar, 144 h, application rate of 200 ppm, sunflower leaf discs, mixed ages, 6 days after infestation. Format: in vivo. As for the experimental part:
Example B5: Activity Against Myzus persicae (Green Peach Aphid)
Sunflower leaf discs were placed on agar in a 24-well microtiter plate and sprayed with aqueous test solutions prepared from 10,000 ppm DMSO stock solutions. After drying, the leaf discs were infested with an aphid population of mixed ages. The samples were assessed for mortality 6 days after infestation.

In data set [5] the test system is Euschistus heros (neotropical brown stink bug). Briefly: Example B8: activity against Euschistus heros, soybean leaf spray. Format: in vivo. Particulars: 120 h, application rate of 200 ppm, N-2 nymphs, 5 days after infestation. As for the experimental part: Example B8: Activity Against Euschistus heros (Neotropical Brown Stink Bug)
Soybean leaf on agar in 24-well microtiter plates were sprayed with aqueous test solutions prepared from 10,000 ppm DMSO stock solutions. After drying the leaf were infested with N-2 nymphs. The samples were assessed for mortality 5 days after infestation.

Data set [6] concerns Bemisia tabaci (cotton white fly). Briefly: Example B7: activity against Bemisia tabaci, cotton leaf disc spray. The data set is classed as in vivo. Particulars: foliar, 144 h, application rate of 200 ppm, cotton leaf discs, adult white flies, 6 days after incubation. As for the experimental part:
Example B7: Activity Against Bemisia tabaci (Cotton White Fly)
Cotton leaf discs were placed on agar in 24-well microtiter plates and sprayed with aqueous test solutions prepared from 10,000 ppm DMSO stock solutions. After drying the leaf discs were infested with adult white flies. The samples were checked for mortality 6 days after incubation.

The subject of data set [7] is Spodoptera littoralis (Egyptian cotton leaf worm). Briefly: Example B2: activity against Spodoptera littoralis, systemic via lettuce on agar. The data set is classed as in vivo. Particulars: 144 h, application rate of 12.5 ppm, Spodoptera eggs, 6 days after infestation, read-out: control in at least one of the three categories (mortality, anti-feedancy or growth inhibition). From the text:
Example B2: Activity Against Spodoptera Littoralis (Egyptian Cotton Leaf Worm)
Test compounds were applied by pipette from 10,000 ppm DMSO stock solutions into 24-well plates and mixed with agar. Lettuce seeds were placed on the agar and the multi well plate was closed by another plate which contains also agar. After 7 days the roots have absorbed the compound and the lettuce has grown into the lid plate. The lettuce leafs were now cut off into the lid plate. Spodoptera eggs were pipetted through a plastic stencil on a humid gel blotting paper and the plate closed with it. The samples were assessed for mortality, anti-feedant effect and growth inhibition in comparison to untreated samples 6 days after infestation. The following compound gave an effect of at least 80% control in at least one of the three categories (mortality, anti-feedancy or growth inhibition) at an application rate of 12.5 ppm: P1, P4, P9, P12 and P13.

Where only a bound is given, the exact number is not on record here.

As for `CCSc1cc(C2CCCC2)cnc1-c1nc2cc(C(F)(F)F)cnc2n1C` [Compound P2, 2-(5-cyclopentyl-3-ethylsulfanyl-2-pyridyl)-3-methyl-6-(trifluoromethyl) imidazo[4,5-b]pyridine], the melting point (commonly the temperature, or range, at which the solid turns liquid) is 130 to 132 °C.
On the same count and under the same terms, next, `CCSc1cc(C2CCCCC2)cnc1-c1nc2cc(C(F)(F)F)cnc2n1C` [Compound P3, 2-(5-cyclohexyl-3-ethylsulfanyl-2-pyridyl)-3-methyl-6-(trifluoromethyl) imidazo[4,5-b]pyridine]: 148 to 150 °C.
As for `CCS(=O)(=O)c1cc(C2CCCC2)cnc1-c1nc2cc(C(F)(F)F)cnc2n1C` [Compound P5], the percent control (mortality, anti-feedancy or growth inhibition) at 200 ppm in data set [1] was at least 80%. The percent effect (mortality or growth inhibition) at 200 ppm in data set [2] and in data set [3] was at least 80% throughout. Besides, the mortality at 200 ppm in data set [4] and in data set [5] was at least 80% each time.
`CCS(=O)(=O)c1cc(C2CCCCC2)cnc1-c1nc2cc(C(F)(F)F)cnc2n1C` [Compound P6]: the percent effect (mortality or growth inhibition) at 200 ppm in data set [2] and in data set [3] was at least 80% throughout. Besides, the mortality at 200 ppm in data set [4], in data set [6] and in data set [5] was at least 80% throughout.
`CCSc1cc(C2CCC2)cnc1-c1nc2cc(C(F)(F)F)cnc2n1C` [Compound P7] returned a melting point of 136 to 138 °C.
For the molecule `CCS(=O)(=O)c1cc(C2CCC2)cnc1-c1nc2cc(C(F)(F)F)cnc2n1C` [Compound P8], in data set [1], the percent control (mortality, anti-feedancy or growth inhibition) at 200 ppm was at least 80%. The percent effect (mortality or growth inhibition) at 200 ppm in data set [2] and in data set [3] was at least 80% in each case. The mortality at 200 ppm in data set [4], in data set [6] and in data set [5] was at least 80% in each case.
As to `CCS(=O)(=O)c1cc(C2(C#N)CCC2)cnc1-c1nc2cc(C(F)(F)F)cnc2n1C` [Compound P10], in data set [1], the percent control (mortality, anti-feedancy or growth inhibition) at 200 ppm was at least 80%. For the same molecule, the percent effect (mortality or growth inhibition) at 200 ppm in data set [2] and in data set [3] was at least 80% throughout. The mortality at 200 ppm in data set [4], in data set [6] and in data set [5] was at least 80% throughout.
Regarding `CCS(=O)(=O)c1cc(C2(C(=O)O)CC2)cnc1-c1nc2cc(C(F)(F)F)cnc2n1C` [Compound P12, 1-[5-ethylsulfonyl-6-[3-methyl-6-(trifluoromethyl)imidazo[4,5-b]pyridin-2-yl]-3-pyridyl]cyclopropanecarboxylic acid], the percent control (mortality, anti-feedancy or growth inhibition) at 200 ppm in data set [1] was at least 80%. In data set [7], the control at 12.5 ppm was at least 80%. Further, the percent effect (mortality or growth inhibition) at 200 ppm in data set [2] and in data set [3] was at least 80% each time. Besides, the mortality at 200 ppm in data set [4], in data set [6] and in data set [5] was at least 80% throughout.
The molecule `CCS(=O)(=O)c1ccc(C2CC2)nc1-c1nc2cc(C(F)(F)F)cnc2n1C` [Compound P14, 2-(6-cyclopropyl-3-ethylsulfonyl-2-pyridyl)-3-methyl-6-(trifluoromethyl)imidazo[4,5-b]pyridine] displayed a melting point of 163 to 165 °C.

(Values after US11072608B2, “Pesticidally active heterocyclic derivatives with sulphur containing substituents” (SYNGENTA PARTICIPATIONS AG, priority 2014, dated 2021).)
